The text below walks through data of ChEMBL document CHEMBL1201862, “PubChem BioAssay data set” (2004).

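These data come from cells grown in 96-well plates and exposed to compound for 48 hours at five concentrations. Here, GI50 denotes the concentration required for 50% inhibition of growth.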 Calls of active or inactive are those of the source. No stated cut-off is given here; in the data, active = GI50 up to about 1.1 µM and inactive = higher. A value given as a limit tells only on which side of the number the result lay.

Some test systems named below: HCC 2998; HCT-116; LOX IMVI; M14; MCF7; MDA-MB-435; MDA-N; NCI-H23; NCI/ADR-RES; OVCAR-4; OVCAR-8; PC-3; SNB-75; SR; T47D; UO-31; SF-295; SK-MEL-28; NCI-H522; SF-539.
Holding throughout (test): NCI anticancer screen, dose series, 48 h

As to `O=c1c(Cc2c(O)ccc3ccccc23)nnc2sc(-c3nn4c(=O)c(Cc5c(O)ccc6ccccc56)nnc4s3)nn12`, the GI50 is > 100 µM (inactive) in the assay with HCC 2998; > 100 µM (inactive) in the assay with HCT-116; > 100 µM (inactive) in the assay with LOX IMVI; > 100 µM (inactive) in the assay on M14; 18 µM (inactive) with MCF7; > 100 µM (inactive) in the assay on MDA-MB-435. Moreover, the GI50 was > 100 µM (inactive) in the assay with MDA-N; 54.7 µM (inactive) with NCI-H23; > 100 µM (inactive) in the assay on NCI/ADR-RES; > 100 µM (inactive) with OVCAR-4; > 100 µM (inactive) in the assay on OVCAR-8; > 100 µM (inactive) in the assay on PC-3. The GI50 with SNB-75 is 9.2 µM (inactive); with SR, > 100 µM (inactive); with T47D, 37.2 µM (inactive); with UO-31, > 100 µM (inactive).

As for `Oc1ccc(-c2nc(-c3cccnc3)c(-c3ccc(F)cc3)[nH]2)cc1`, the GI50 is 19.8 µM (inactive) in the assay on HCC 2998; 17.4 µM (inactive) in the assay on HCT-116; 12.5 µM (inactive) with LOX IMVI; 17.7 µM (inactive) with M14; 16 µM (inactive) in the assay on MCF7; 16.2 µM (inactive) with MDA-MB-435. In addition, the GI50 is 19 µM (inactive) in the assay with MDA-N; 12.7 µM (inactive) with NCI-H23; 19 µM (inactive) in the assay on NCI/ADR-RES; 17.7 µM (inactive) in the assay on OVCAR-4; 17.9 µM (inactive) with OVCAR-8; 16.7 µM (inactive) in the assay on PC-3. For the same molecule, the GI50 is 16.7 µM (inactive) with SF-295; 19.9 µM (inactive) in the assay on SK-MEL-28; 18.2 µM (inactive) with SNB-75; 16.9 µM (inactive) with SR; 17.4 µM (inactive) in the assay on T47D; > 10 µM (inactive) in the assay with UO-31.

For the molecule `Nc1ccc(Oc2ccc(C3(c4ccc(Oc5ccc(N)c(O)c5)cc4)C4CC5CC(C4)CC3C5)cc2)cc1O`, the GI50 is 1.65 µM (inactive) in the assay with HCC 2998; 1.5 µM (inactive) in the assay with HCT-116; 1.81 µM (inactive) in the assay on LOX IMVI; 1.71 µM (inactive) with M14; 1.67 µM (inactive) with MCF7; 2.02 µM (inactive) in the assay on MDA-MB-435. In addition, the GI50 in the assay with MDA-N was 2.03 µM (inactive); with NCI-H23, 1.91 µM (inactive); with NCI-H522, 1.73 µM (inactive); in the assay with NCI/ADR-RES, 2.35 µM (inactive); in the assay on OVCAR-4 it was 2.43 µM (inactive); in the assay on OVCAR-8 it was 1.7 µM (inactive). For the same molecule, the GI50 was 1.68 µM (inactive) in the assay on PC-3; 3.06 µM (inactive) with SF-295; 1.12 µM (active) with SF-539; 1.84 µM (inactive) in the assay with SK-MEL-28; 1.17 µM (inactive) in the assay on SR; 3.27 µM (inactive) in the assay with T47D. Further, the GI50 with UO-31 was 1.92 µM (inactive).

Regarding `CSc1ccc(/C=C2\N=C(c3ccccc3)N(c3nc4c(Cl)cc(Cl)cc4s3)C2=O)cc1`, the GI50 in the assay on HCC 2998 was 29 µM (inactive); in the assay on HCT-116, 19.1 µM (inactive); with LOX IMVI, 29.9 µM (inactive); in the assay with M14, 25.7 µM (inactive); in the assay on MCF7, 24.9 µM (inactive); in the assay with MDA-MB-435 it was 16.6 µM (inactive). The GI50 in the assay with MDA-N was 17 µM (inactive); in the assay on NCI/ADR-RES, 25.2 µM (inactive); in the assay with OVCAR-4, 21.2 µM (inactive); in the assay on OVCAR-8, 38.5 µM (inactive); in the assay on PC-3, 20.4 µM (inactive); in the assay with SF-295, 24.3 µM (inactive). Besides, the GI50 in the assay on SF-539 was 34.5 µM (inactive); in the assay on SK-MEL-28, 31.1 µM (inactive); in the assay on SNB-75, 36.6 µM (inactive); in the assay with SR it was 20.9 µM (inactive); in the assay on T47D it was 38.5 µM (inactive); in the assay on UO-31, 22.2 µM (inactive).

Turning to `CCOC(=O)c1ccc(NCC#CCN2CCCCC2)cc1`, the GI50 in the assay on HCT-116 was 96.8 µM (inactive); in the assay with LOX IMVI, > 100 µM (inactive); with M14, 59.2 µM (inactive); with MCF7, 73.8 µM (inactive); in the assay on MDA-MB-435 it was > 100 µM (inactive); in the assay on MDA-N, 60.4 µM (inactive). The GI50 in the assay with NCI-H23, in the assay on NCI/ADR-RES, in the assay on OVCAR-4, in the assay with PC-3, in the assay with SF-539 and in the assay with SK-MEL-28 was > 100 µM (inactive) in each case. In addition, the GI50 with SR, in the assay with T47D and with UO-31 was > 100 µM (inactive) throughout.

Take `O=C1/C(=C/c2ccccc2S)N=C(c2ccccc2)N1c1ccc2c(c1)Sc1cc(N3C(=O)/C(=C/c4ccccc4S)N=C3c3ccccc3)ccc1N2`: the GI50 with HCC 2998 is 20.5 µM (inactive); in the assay with HCT-116 it was 21.3 µM (inactive); with LOX IMVI, 20.3 µM (inactive); with M14, 17.9 µM (inactive); in the assay with MCF7, 21 µM (inactive); in the assay on MDA-MB-435 it was 21.1 µM (inactive). Also, the GI50 in the assay with MDA-N is 23.8 µM (inactive); in the assay with NCI/ADR-RES it was 35.5 µM (inactive); in the assay on OVCAR-4 it was 32.6 µM (inactive); with OVCAR-8 it was 19.4 µM (inactive); in the assay on PC-3 it was 21.4 µM (inactive); with SF-295, 16.8 µM (inactive). Further, the GI50 was 11.8 µM (inactive) with SF-539; 21.7 µM (inactive) with SK-MEL-28; 15.8 µM (inactive) with SNB-75; 15.7 µM (inactive) with SR; 22.7 µM (inactive) in the assay on T47D; 15.8 µM (inactive) in the assay on UO-31.

Take `CC(C(=O)n1ccnc1)N1c2ccccc2Sc2ccccc21` (stereo not drawn): the GI50 with HCT-116 was > 100 µM (inactive); in the assay on LOX IMVI it was 82.8 µM (inactive); in the assay on M14, 77.3 µM (inactive); in the assay with MCF7, 53.1 µM (inactive); with MDA-MB-435, > 100 µM (inactive); in the assay on MDA-N, > 100 µM (inactive). Besides, the GI50 was 78.7 µM (inactive) in the assay on NCI-H23; 63.2 µM (inactive) with NCI/ADR-RES; > 100 µM (inactive) with OVCAR-4; > 100 µM (inactive) in the assay with OVCAR-8; 55.1 µM (inactive) in the assay with PC-3; > 100 µM (inactive) with SF-295. Moreover, the GI50 with SF-539 is > 100 µM (inactive); in the assay on SK-MEL-28, > 100 µM (inactive); with SNB-75 it was 40.6 µM (inactive); with SR, 50.1 µM (inactive); in the assay on T47D, 39.5 µM (inactive); in the assay on UO-31 it was 70.1 µM (inactive).

`O=C(NCCCCCCCCNC(=O)c1cc(-c2ccccc2)nc2ccccc12)c1cc(-c2ccccc2)nc2ccccc12`: the GI50 in the assay with HCT-116, with LOX IMVI, in the assay with M14, with MCF7, in the assay with MDA-MB-435 and with MDA-N was > 100 µM (inactive) each time. For the same molecule, the GI50 with NCI-H23 was > 100 µM (inactive); in the assay on NCI-H522 it was 87.7 µM (inactive); with NCI/ADR-RES, > 100 µM (inactive); in the assay with OVCAR-4 it was > 100 µM (inactive); in the assay on OVCAR-8, 94 µM (inactive); in the assay on PC-3, > 100 µM (inactive). In addition, the GI50 with SF-295 is > 100 µM (inactive); with SF-539, 71.1 µM (inactive); in the assay on SK-MEL-28 it was > 100 µM (inactive); in the assay with SNB-75, 38.6 µM (inactive); in the assay with SR it was > 100 µM (inactive); in the assay with T47D, > 100 µM (inactive). The GI50 with UO-31 was > 100 µM (inactive).

Consider `COC(=O)CC(C)(N[S+]([O-])c1ccc(C)cc1)c1ccccc1` (stereo not drawn), for which the GI50 in the assay with HCC 2998, in the assay on HCT-116, with LOX IMVI, with MCF7, in the assay with MDA-MB-435 and in the assay with MDA-N was > 100 µM (inactive) each time. The GI50 with NCI-H23, in the assay with NCI-H522, in the assay with NCI/ADR-RES, with OVCAR-4, in the assay with PC-3 and in the assay on SF-295 was > 100 µM (inactive) throughout. Further, the GI50 in the assay with SF-539, in the assay with SK-MEL-28, in the assay on SR, with T47D and in the assay with UO-31 was > 100 µM (inactive) each time.

Take `c1coc(-c2nccc3c2[nH]c2ccccc23)c1`: the GI50 with HCC 2998, with HCT-116, in the assay with LOX IMVI, with M14, in the assay with MCF7 and with MDA-MB-435 was > 100 µM (inactive) each time. In addition, the GI50 with MDA-N, with NCI-H23, with NCI-H522, in the assay with NCI/ADR-RES, with OVCAR-4 and in the assay on OVCAR-8 was > 100 µM (inactive) in each case. For the same molecule, the GI50 in the assay on PC-3, in the assay with SF-295, with SF-539, with SK-MEL-28, with SR and in the assay with T47D was > 100 µM (inactive) in each case.

Take `CC(C)CC1c2[nH]c3ccccc3c2C[C@H]2C(=O)NC(COC(C)(C)C)C(=O)N12` (stereo partly drawn): the GI50 in the assay with HCT-116 was 18.6 µM (inactive); in the assay with LOX IMVI, 17.3 µM (inactive); with M14, 20.8 µM (inactive); in the assay with MCF7 it was 31.6 µM (inactive); in the assay on MDA-MB-435, 20.5 µM (inactive); in the assay on MDA-N, 21.8 µM (inactive). For the same molecule, the GI50 in the assay with NCI-H23 is 28.7 µM (inactive); in the assay on NCI-H522, 16.4 µM (inactive); in the assay on NCI/ADR-RES, 20.8 µM (inactive); in the assay on OVCAR-4 it was 30.5 µM (inactive); in the assay on OVCAR-8, 33.1 µM (inactive); in the assay with PC-3, 22 µM (inactive). Besides, the GI50 is 17.3 µM (inactive) in the assay with SF-295; 31.5 µM (inactive) with SK-MEL-28; 16.4 µM (inactive) in the assay with SR; 13.2 µM (inactive) in the assay with T47D; 32.1 µM (inactive) with UO-31.
